The record followed here is ChEMBL document CHEMBL1141258, “Prismatomerin, a new iridoid from Prismatomeris tetrandra. Structure elucidation, determination of absolute configuration, and cytotoxicity” (J Nat Prod, 2007).

Each structure is given as a SMILES string. Values after ≈ are worked out from the molar mass of the structure shown.

In one data set the test system is L929. The data set can be described thus: Antiproliferative activity against mouse L929 cells after 5 days by SRB assay. The format is cell-based. The following applies: L929, 120 h. On the technique in general: The SRB assay estimates cell density from bound dye.
The test system of the next data set is SW480. Put plainly: Antiproliferative activity against human SW480 cells after 5 days by MTT assay. The following applies: SW480, 120 h. On the technique in general: Formazan colour is commonly taken as a measure of viable cells.
A short description of data set [1]: Antiproliferative activity against human KB31 cells after 5 days by MTT assay. The following applies: KB 3-1, 120 h.
In a further data set the test system is A549. The data set can be described thus: Antiproliferative activity against human A549 cells after 5 days by MTT assay. The following applies: A549, 120 h.
Data set [2] in a line: Toxicity in brine shrimp after 24 hrs. The class given is organism-based. The following applies: artemia, in vivo; read-out: LD50.
The nature of data set [3]: Toxicity in brine shrimp after 48 hrs. The format is organism-based. The following applies: artemia, in vivo; read-out: LD50.

As for `COC(=O)C1=CO[C@@H]2O[C@H]3/C(=C\c4ccc(OC(C)=O)cc4)C(=O)O[C@]34C=C[C@H]1[C@H]24`, the IC50 in the data set with L929 came to 410 nM; in the data set with SW480, 84 nM; in data set [1], 350 nM; in the data set with A549, 1600 nM.
In the case of `COC(=O)C1=CO[C@H](O[C@@H]2O[C@H](CO)[C@@H](O)[C@H](O)[C@H]2O)[C@H]2[C@@H]1C=C[C@@]21C=C(C(O)c2ccc(O)cc2)C(=O)O1` (stereo partly specified) [GAERTNEROSIDE], in data set [2], the LC50 at 24 h was 0.38 µg/mL (≈ 0.693 µM). Further, the LC50 at 48 h in data set [3] was found to be 224 nM.

Usually IC50 stands for the point on the concentration scale where inhibition reaches its midpoint. Higher therefore signals a need for much substance.
